Results taken from PMC4526662, “A Pyranose-2-Phosphate Motif Is Responsible for Both Antibiotic Import and Quorum-Sensing Regulation in Agrobacterium tumefaciens” (PLoS Pathogens, 2015).
“And” between values parts separate entries of the source, which are not always exact repeats. Equal entries are not always repeated. “Also recorded” adds a separate entry of the source.

Columns and labels:
[1] = biological target: T1, AccA (Agrobacterium fabrum, UniProt Q52012); assay: AccA isothermal titration microcalorimetry; type: binding, Agrobacterium tumefaciens C58; settings: for binding to AccA detected by microcalorimetry / TΔS / ΔG / ΔH / N (binding stoichiometry) / K (association binding constant): ITC; for K (association binding constant): Ka in M-1
Protocol: (§1) Isothermal titration microcalorimetry experiments were performed with an ITC200 isothermal titration calorimeter from MicroCal (GE Healthcare). The experiments were carried out at 20°C for AccA and 25°C for AccR. […] For agrocin 84 experiment, we inverted the protein and ligand positions: the ligand was in the cell and the protein in the syringe. This strategy was chosen to overcome the small amount of agrocin 84. The experimental data were fitted to theoretical titration curves with software supplied by MicroCal (ORIGIN). This software uses the relationship between the heat generated by each injection and ΔH (enthalpy change in Kcal.Mol-1), Ka (the association binding constant in M-1), n (the number of binding sites), total protein concentration and free and total ligand concentrations.
Target sequence in this assay (Q52012 entry or part of it): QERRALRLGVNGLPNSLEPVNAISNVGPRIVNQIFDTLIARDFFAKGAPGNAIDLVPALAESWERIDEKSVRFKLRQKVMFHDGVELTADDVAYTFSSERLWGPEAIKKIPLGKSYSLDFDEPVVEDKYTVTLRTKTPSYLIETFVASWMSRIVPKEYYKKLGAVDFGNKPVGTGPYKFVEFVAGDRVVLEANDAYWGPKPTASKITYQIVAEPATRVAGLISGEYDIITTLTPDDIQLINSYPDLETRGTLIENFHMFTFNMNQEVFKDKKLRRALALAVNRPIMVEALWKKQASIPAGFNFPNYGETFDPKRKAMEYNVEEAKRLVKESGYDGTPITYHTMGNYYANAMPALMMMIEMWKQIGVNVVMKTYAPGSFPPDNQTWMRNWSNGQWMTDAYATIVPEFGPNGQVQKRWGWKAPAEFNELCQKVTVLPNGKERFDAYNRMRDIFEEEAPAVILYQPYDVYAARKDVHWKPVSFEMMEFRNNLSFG

[2] = biological target: T1, AccA; assay: biochemical; type: binding, Agrobacterium tumefaciens C58; settings: for fluorescence intensity / autofluorescence signal change on incubating AccA with ligand: tryptophan fluorescence, excitation 295 nm, emission 335 nm
Protocol: Ligand binding to the protein AccA was investigated using tryptophan fluorescence spectroscopy, a method exploiting significant conformational changes accompanying the binding.
All experiments were performed at 22°C in 3 x 15 mm quartz cuvettes using Cary Eclypse spectrofluorometer (Varian) in 25 mM Tris-HCl pH 8.0 and 150 mM NaCl with a fixed amount of proteins (2 μM) and increasing concentrations of ligand. […] The data were analysed using Origin 7 software and fitted to the equation f = ΔFluorescencemax*abs(x)/(K D+abs(x)).

[3] = test system: A. tumefaciens C58; assay: Uptake assay: growth with compound as sole carbon source; type: cell-based, Agrobacterium tumefaciens; settings: 1 mM in AB media, OD600 monitored for 48 hours
Protocol: This experiment confirmed that the transporter can uptake bulky synthetic molecules such as agrocinopine 3’-O-benzoate into the cell as observed for the toxin agrocin 84, which is also a relatively large molecule.
A single colony of Agrobacterium tumefaciens C58 with pTiC58 derivative pTi::Gm was grown overnight at 28°C in AB media supplemented with mannitol (2 g/L) and gentamicin 25 μg.ml-1. 20 ml of AB media in presence of a carbon source (agrocinopine 3’-O-benzoate or L-arabinose-2-phosphate at a final concentration of 1 mM) or in absence of any carbon source and supplemented with gentamicin (25 μg.ml-1) were inoculated at an initial OD600 of 0.03 and the OD was monitored for 48 hours.

[4] = biological target: T2, AccR (Agrobacterium fabrum, UniProt P32104); assay: AccR isothermal titration microcalorimetry; type: binding, Agrobacterium tumefaciens C58
T2 construct: 6-His tag (C); made in house; host or cells: E. coli C41
T2 sequence (P32104 whole entry): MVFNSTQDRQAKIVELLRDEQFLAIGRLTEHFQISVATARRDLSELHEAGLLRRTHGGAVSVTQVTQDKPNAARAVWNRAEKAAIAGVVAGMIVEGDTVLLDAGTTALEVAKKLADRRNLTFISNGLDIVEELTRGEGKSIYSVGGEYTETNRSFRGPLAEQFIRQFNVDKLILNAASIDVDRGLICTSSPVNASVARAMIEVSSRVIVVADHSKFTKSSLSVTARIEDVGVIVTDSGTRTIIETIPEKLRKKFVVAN
Protocol: The question arose about their biological role in A. tumefaciens, especially in relation to regulation of the AccR/quorum-sensing pathway that controls dissemination of the Ti plasmid. We first measured the affinity of the synthetic agrocinopine A towards purified recombinant AccR by isothermal titration microcalorimetry.
as §1

[5] = test system: A. tumefaciens C58; assay: Quantification of OC8HSL quorum-sensing signal in cell cultures; type: cell-based, Agrobacterium tumefaciens; settings: 1 mM compound
Protocol: (§2) In complementation assay, the accF wild-type gene was cloned into p6000 [50] plasmid and electroporated into the accF mutant. Rifampicin-resistant recipient strain C58.00 was derived from A. tumefaciens C58 cured of the At and Ti plasmids. A. tumefaciens was cultivated at 28°C in AB minimal medium containing ammonium chloride (1 g/L) and mannitol (2 g/L), or in Luria-Bertani modified medium (LBm; NaCl 5 g/L). The antibiotics gentamycin and rifampicin were added at 25 μg/mL and 100 μg/mL, respectively.
(§3) Overnight LBm cultures of recipient (C58.00) and donor (C58 control) cells were mixed in an equal ratio (1:1). 10 μl of this mix were transferred into 140 μl of AB medium supplemented with mock or 1 mM of agrocinopine A, L-arabinose-2-phosphate and glucose-2-P for static liquid cultures of 24, 48, 72 and 96 hours. Suspension dilutions of these cultures were spotted onto selective agar media to enumerate the different bacterial populations (donor, recipient and Ti plasmid transconjugants). In parallel, to quantify OC8HSLs, aliquots of cell cultures were spotted onto TLC plates (RP-18/UV254, Macherey-Nagel) and incubated with the OC8HSL-bioindicator strain A. tumefaciens NT1(pZLR4) as previously described. Tested samples were compared with a calibration curve obtained with pure OC8HSL (Sigma-Aldrich).

[6] = test system: A. tumefaciens C58; assay: Ti plasmid conjugation assay; type: cell-based, Agrobacterium tumefaciens; settings: for Ti plasmid transconjugants: C58 control donor with recipient C58.00, 1 mM compound; for Ti plasmid conjugation: 1 mM compound
Protocol: as §2, §3

[7] = biological target: AccR, master transcriptional regulator (transcriptional repressor of the DeoR family) of Agrobacterium tumefaciens C58 (Agrobacterium tumefaciens C58); assay: native gel or EMSA; native gel electrophoresis of purified recombinant AccR in solution; conditions not given, no figure or methods section for this gel
[8] = AccA 2 μM, 22°C, 25 mM Tris-HCl pH 8.0, 150 mM NaCl, one binding site model, ND: no signal detected, read-out: apparent KD (autofluorescence titration)
[9] = accF mutant complemented with accF wild type (p6000)

Sequence of AccR, master transcriptional regulator (transcriptional repressor of the DeoR family) of Agrobacterium tumefaciens C58 (natural protein) (O30540 whole entry): as the sequence (P32104 whole entry) above

Compound | Kd [1] | TΔS ([1]; 20°C) | ΔG ([1]; 20°C) | ΔH ([1]; 20°C) | N (binding stoichiometry) ([1]; 20°C, one binding site model) | K (association binding constant) ([1]; 20°C) | fluorescence intensity / autofluorescence signal change on incubating AccA with ligand [2] | also measured
Nc1ncnc2c1ncn2[C@@H]1O[C@H](COP(=O)(O)O)[C@@H](O)[C@H]1O [adenosine monophosphate, reference compound] |  |  |  |  |  |  |  | binding to AccA detected by microcalorimetry [1]: could not detect any binding
O=C(OC1C(OP(=O)(O)OC2C(O)OCC(O)C2O)C(CO)OC1(CO)OC1OC(CO)C(O)C(O)C1O)c1ccccc1 (stereo not drawn) [agrocinopine 3’-O-benzoate] | 7.5 ± 2.2 µM | 3.2E3 | -28.9 kJ/mol | -3.7E3 ± 374 cal/mol | 0.99 ± 0.06 | 1.33E5 |  | Kd ([2]; apparent KD (autofluorescence titration), AccA 2 μM, 22°C, 25 mM Tris-HCl pH 8.0, 150 mM NaCl, one binding site model, ND: no signal detected): 5.88 ± 1.6 µM; fold lower affinity with AccA in comparison with agrocinopine A ([1]; ITC KD values): 25 fold; bacterial growth with compound as sole carbon source [3]: used as nutrient by the bacteria as indicated by bacterial growth
O=C[C@H](OP(=O)(O)O)[C@@H](O)[C@@H](O)CO [L-arabinose-2-phosphate] | 1.33 ± 0.12 µM | -3.2E3 | -33.1 kJ/mol | -1.11E4 ± 168 cal/mol | 0.95 ± 0.01 | 7.54E5 ±6.5E4 |  | Kd [2, 8]: 2.93 ± 0.66 µM; Kd [4]: 0.11 ± 0.06 µM; n1 (stoichiometry, first step) ([4]; ITC, 25°C): 0.4; n2 (stoichiometry, second step) ([4]; ITC, 25°C): 0.9; accumulation of quorum-sensing molecules ([5]; accF defective mutant): still observed; Ti plasmid transconjugants [6]: could also be detected; Ti plasmid conjugation ([6]; accF defective mutant donor): still activated
O=P(O)(OC1C(O)OCC(O)C1O)OC1C(CO)OC(CO)(OC2OC(CO)C(O)C(O)C2O)C1O (stereo not drawn) [agrocinopine A] | 0.3 ± 0.03 µM | -2.6E3 | -36 kJ/mol | -1.12E4 ± 98 cal/mol | 1 ± 0.006 | 2.99E6 ± 2.9E5 |  | Kd [2, 8]: 1.32 µM and 1.3 µM; affinity towards purified recombinant AccR ([4]; ITC): no affinity was detected; accumulation of quorum-sensing molecules ([5]; accF defective mutant): abolished; accumulation of quorum-sensing molecules [5, 9]: restored; Ti plasmid transconjugants [6]: could also be detected; Ti plasmid conjugation ([6]; accF defective mutant donor): abolished; Ti plasmid conjugation [6, 9]: restored
agrocin 84 [reference compound] |  | -3.6E4 | -32.2 kJ/mol | -183 ± 15.9 kJ/mol | 0.8 ± 0.043 | 6.83E5 ± 1.8E5 | no signal was measured | Kd ([1]; 20°C, one binding site model, read-out: mean KD (isothermal titration microcalorimetry)): 1.5 ± 0.41 µM
CC(C)OP(=O)(O)O[C@H]1C(O)OC[C@H](O)[C@@H]1O (stereo partly drawn) [L-arabinose-2-isopropylphosphate] | 2.2 ± 0.58 µM | -8E3 cal/mol/K | -31.8 kJ/mol | -1.56E4 ± 493 cal/mol | 1.08 ±0.03 | 4.72E5 ± 1.2E5 |  | Kd [2, 8]: 4.79 ± 0.6 µM
AccR, master transcriptional regulator (transcriptional repressor of the DeoR family) of Agrobacterium tumefaciens C58 (natural protein) |  |  |  |  |  |  |  | stoichiometry N [7]: 2
O=C[C@H](O)[C@@H](O)[C@H](O)[C@H](O)COP(=O)(O)O [glucose-6-phosphate, reference compound] |  |  |  |  |  |  | no autofluorescence signal changes | 
O=P(O)(O)O[C@H]1O[C@H](CO)[C@@H](O)[C@H](O)[C@H]1O [glucose-1-phosphate, reference compound] |  |  |  |  |  |  | no autofluorescence signal changes | 
OC1OC[C@H](O)[C@H](O)[C@H]1O (mixture of isomers) [L-arabinose, reference compound] |  |  |  |  |  |  | No fluorescence intensity change | binding to AccA detected by microcalorimetry [1]: No signal detected; also recorded: could not detect any binding
phosphate [reference compound] |  |  |  |  |  |  | No fluorescence intensity change | 
O=P(O)(O)O[C@H]1C(O)O[C@H](CO)[C@@H](O)[C@@H]1O (stereo partly drawn) |  |  |  |  |  |  |  | Kd [2]: 2.5 µM
